Columns and labels:
[1] = test system: Lrr5, Lhk1 and Nin transcripts; assay: Quantitative RT-PCR of Lrr5, Lhk1 and Nin transcripts in roots and root explants in response to cytokinin; assay type: in vivo, Lotus japonicus
Method: Steady state levels of Lhk1 and ARR transcripts were determined in roots and other plant organs by quantitative RT-PCR analysis according to the following protocol.
Wild type and snf2 seeds were surface sterilised and germinated as described previously (Handberg, and Stougaard, (1992) Plant J. 2: 487). Plants were grown with 16 h light/8 h dark period at 21° C. Total RNA was isolated from roots, nodules, leaves, flowers and pods of inoculated wild type L. japonicus. mRNA was extracted from roots of wild type and snf2 plants grown for 2 weeks on ¼ B&D (Broughton and Dilworth, (1971) Biochem. J. 125: 1075) supplemented with 0.5 μM potassium nitrate. Roots were treated with 10 μM BAP for three time points, 30 minutes, 3 hours and 8 hours. Untreated roots were taken as control. mRNA was also extracted from root segments of wild type and snf2 plants grown for 10 days on hormone-free B5 salt medium and B5 salt medium supplemented with 0.5 μg/ml of BAP. Dynabeads mRNA direct kit (Invitrogen) was used for the extraction of mRNA.
First strand cDNA was prepared using reverse transcriptase (Fermentas). Quantitative PCR was performed on a Light Cycler (Roche Molecular Biochemicals) using Fast Start DNA master SYBR green kit (Roche) to amplify the target transcripts from 5 μl diluted cDNA. Four house keeping genes (Czechowski et al., (2005) Genome analysis 139: 5) were used to determine the relative expression of target genes (see below). For each treatment, normalized relative ratios of the target genes and the four independent house keeping genes have been calculated using the Relative Quantification Software (Quant) from Roche. The geometric mean (Vandesompele et al., (2002)Genome Biology 3:1) of the relative expression ratios for the three biological and technical replicates and the corresponding 95% intervals of confidence have been calculated as described previously (Radutoiu et al., (2003) Nature 425: 585).

[2] = test system: cps::lacZ reporter; assay: Two-component phosphorelay assay in E. coli SRC122 (cps::lacZ), receptor activity read out as β-galactosidase; assay type: cell-based; conditions: LB plates with/without t-zeatin, kinetin, BAP (200 μM) or thidiazuron (50 μM), 40 hours, 25° C.
From the text: (§1) In this assay cytokinin induction can be determined without interference from endogenous cytokinin levels, cytokinin penetration and interfering metabolic pathways present in plants. The phosphorelay exploited in this assay is normally involved in regulating bacterial extracellular polysaccharide synthesis through activation of the cps operon in response to a sensor (RcsC), which has a domain structure similar to plant cytokinin receptors. Functional expression of a cytokinin receptor in an E. coli strain deleted of RcsC sensor allows cytokinin perception to be read out as β-galactosidase activity from the expression of a cps::lacZ fusion.
(§2) Accordingly the Lhk1 cDNAs, corresponding to wild type and snf2 allele were cloned into the pIN-III expression vector and transformed into the sensor-negative SRC122 (ΔRcsC) strain harbouring the cps::lacZ gene. The transformants were grown overnight in liquid […] and then spotted on LB plates, supplemented with and without t-zeatin, kinetin, BAP (200 μM) each and thidiazuron (50 μM). The LB media was further supplemented with X-Gal (5-bromo-4-chloro-3-indolyl-β-D-[…]), a β-galactosidase substrate. After 40 hours incubation at room temperature (25° C.), the plates were photographed. E coli strain (SRC122) was taken as a negative control.

[3] = test system: wild type Lotus roots; assay: Spontaneous nodulation of wild type hairy roots transformed via A. rhizogenes, scored without rhizobia; assay type: in vivo, Lotus japonicus; conditions: scored in absence of M. loti
Method: Transgenic expression of the wild type or mutant snf2 allele in wild type Lotus roots was performed in order to confirm in planta the genetic basis for the spontaneous nodulation phenotype. A genomic fragment of 12.7 kb from the BAC clone 1 K18 was used to clone out the wild type Lhk1 gene including a 2.2 kb promoter region, and its Snf2 allele comprising the C→T transition, which were then sub-cloned into the pIV10 plasmid. The constructs were integrated into A. rhizogenes strain AR12 by tri-parental mating. Transformation was performed as described by Stougaard (1995) Method Mol Biology 49: Plant Gene Transfer and Expression Protocols, p. 49-63, and included transformation with an empty vector control.

[4] = test system: L. japonicus wild type and snf2 plants; conditions: increasing concentrations of BAP, 3 weeks (FIG. 8)
Method: Accordingly, wild type and snf2 plants were grown on ½ B5 salt with and without increasing concentrations of BAP for 3 weeks. Shoot and root length of at least 60 plants for each treatment was measured.

[5] = test system: wild type LHK1 cytokinin receptor; conditions: liquid culture, LHK1 expressing cells (FIG. 5B)
From the text: as §1, §2

[6] = test system: mutant LHK1 cytokinin receptor (snf2 allele); conditions: liquid culture, snf2 allele expressing cells (FIG. 5B)
From the text: as §1, §2

c1ccc(CNc2ncnc3nc[nH]c23)cc1 [BAP, 6-benzylaminopurine]
increase of Lrr5 transcript level ([1]; snf2 and wild-type root explants on B5 medium, 0.5 μg/ml BAP, 10 days (FIG. 7B)): two to three-fold

Wild type Lhk1 allele: Wild type Lotus histidine kinase gene Lhk1 (SEQ ID NO:1, 2) encoding LHK1 cytokinin receptor protein (SEQ ID NO:3)
β-galactosidase activity, plate assay (X-Gal) [2]: induced β-galactosidase activity in a cytokinin-dependent fashion | nodule number/nodulated plant [3]: 0 | nodule number/plant [3]: 0 | % spontaneous nodulation ([3]; (nodulated/total plants)): 0 (0/41) %

C/C(=C\CNc1ncnc2nc[nH]c12)CO [Cytokinin, Trans-zeatin]
Lrr5 transcript level ([1]; direct treatment of intact snf2 and wild-type roots, 10 μM BAP, 30 minutes, 3 hours, 8 hours (FIG. 7C)): increased | Lhk1 gene transcripts ([1]; intact wild type and snf2 roots (FIG. 7D)): increase rapidly | Nin gene transcription ([1]; intact wild type and snf2 roots (FIG. 7E)): transcriptionally upregulated | sensitivity of shoot and root growth of snf2 plants compared to wild type [4]: hypersensitive | induction of β-galactosidase activity on cytokinin addition [5]: two fold induction | increase of β-galactosidase activity on cytokinin addition [6]: only a marginal increase

From patent publication US20100031388A1, “MUTANT HISTIDINE KINASE THAT CONFERS SPONTANEOUS NODULATION IN PLANTS” (Plant Biosciences Ltd., priority 2006, published 2010)
